Measurements published in BigSolDB 2.1.

O=[N+]([O-])c1cc([N+](=O)[O-])c(Cl)c(Cl)c1Cl
solubility (mole fraction)
Conditions | 278.15 K | 283.15 K | 288.15 K | 293.15 K | 298.15 K | 303.15 K | 308.15 K | 313.15 K | 318.15 K | 323.15 K
in 1,2-dichloroethane | 0.06 | 0.0736 | 0.0895 | 0.108 | 0.13 | 0.155 | 0.185 | 0.219 | 0.258 | 0.301
in DMF | 0.194 | 0.211 | 0.23 | 0.251 | 0.274 | 0.298 | 0.324 | 0.352 | 0.384 | 0.419
in DMSO | – | – | – | 0.238 | 0.262 | 0.287 | 0.315 | 0.345 | 0.378 | 0.412
in NMP | 0.278 | 0.291 | 0.305 | 0.321 | 0.338 | 0.357 | 0.377 | 0.4 | 0.425 | 0.454
in acetone | 0.109 | 0.124 | 0.141 | 0.16 | 0.181 | 0.204 | 0.229 | 0.257 | 0.289 | 0.323
in acetonitrile | 0.0401 | 0.0511 | 0.0644 | 0.0806 | 0.1 | 0.123 | 0.15 | 0.183 | 0.22 | 0.265
in chloroform | 0.0536 | 0.066 | 0.0807 | 0.0982 | 0.118 | 0.141 | 0.169 | 0.201 | 0.237 | 0.279
in dichloromethane | 0.0689 | 0.0822 | 0.0975 | 0.116 | 0.135 | 0.159 | 0.185 | – | – | –
in ethanol | 0.00235 | 0.00301 | 0.00382 | 0.00483 | 0.00611 | 0.00765 | 0.00957 | 0.0118 | 0.0146 | 0.0182
in ethyl acetate | 0.097 | 0.111 | 0.128 | 0.146 | 0.167 | 0.191 | 0.217 | 0.245 | 0.279 | 0.314
in isopropanol | 0.000879 | 0.00125 | 0.00174 | 0.00241 | 0.00333 | 0.00451 | 0.00603 | 0.00807 | 0.0107 | 0.0142
in methanol | 0.00262 | 0.0033 | 0.00414 | 0.00519 | 0.00648 | 0.00806 | 0.00985 | 0.0121 | 0.0149 | 0.0182
in n-butanol | 0.00175 | 0.00238 | 0.0032 | 0.00428 | 0.00565 | 0.00752 | 0.00967 | 0.0126 | 0.0164 | 0.021
in tetrachloromethane | 0.00374 | 0.00582 | 0.00891 | 0.0134 | 0.0201 | 0.0296 | 0.0425 | 0.0609 | 0.0864 | 0.12
in toluene | 0.14 | 0.159 | 0.18 | 0.204 | 0.23 | 0.258 | 0.289 | 0.323 | 0.36 | 0.4
